IC50 and IC90 data for one compound are collected here from article PMC10892871 (Viruses, 2024).

Structures are written as SMILES. Values joined by “and” are separate entries in the source; they are usually repeats but may differ in a detail not shown here. Equal entries are not always repeated.

As usually defined, the IC50 is the concentration that gives 50% inhibition. As a reminder, the IC90 is the concentration needed for an effect of 90%.

This assay has as its system Omicron BQ.1.1 SARS-CoV-2 variant. The format is cell-based.

In the case of `O=c1nc(NO)ccn1[C@@H]1O[C@H](CO)[C@@H](O)[C@H]1O` [EIDD-1931, reference compound], the IC50 (read-out: IC50 vs. BQ.1.1 Mean ± SD) is 1.59 µM and 1.6 µM. Moreover, the IC90 (read-out: IC90 vs. BQ.1.1 Mean ± SD) came to 1.8 ± 0.7 µM.
